Like-named read-outs stand apart in the source and are kept apart here.
Biological target: T1, Na^+ -dependent bile acid transport system (Oryctolagus cuniculus, UniProt Q28727)
T1 construct: Preparation of brush-border membrane vesicles from the ileum of rabbits; from tissue; host or cells: brush-border membrane vesicles from the terminal small intestine (ileum) of male New Zealand rabbits
T1 sequence (Q28727 1-347): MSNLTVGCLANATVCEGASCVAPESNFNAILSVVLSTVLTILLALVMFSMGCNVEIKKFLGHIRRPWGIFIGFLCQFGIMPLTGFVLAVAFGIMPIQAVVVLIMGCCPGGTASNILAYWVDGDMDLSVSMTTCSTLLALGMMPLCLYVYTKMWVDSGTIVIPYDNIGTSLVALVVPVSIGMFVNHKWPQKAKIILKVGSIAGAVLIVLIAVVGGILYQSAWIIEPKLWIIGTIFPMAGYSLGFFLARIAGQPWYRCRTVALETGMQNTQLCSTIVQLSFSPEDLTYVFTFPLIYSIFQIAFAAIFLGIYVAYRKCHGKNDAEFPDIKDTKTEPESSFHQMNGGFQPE
Assay: Inhibition of Na^+ -dependent [^3 H]taurocholate absorption into brush-border membrane vesicles of the ileum
Type: biochemical, rabbit
Conditions: taurocholate 50 μM, pH 7.4, customarily 1 min
Description: The pharmacological data include a series of -tests in which the interaction of the compounds according to the invention with the intestinal bile acid transport system was investigated in the terminal small intestine:
1. Preparation of brush-border membrane vesicles from the ileum of rabbits
The preparation of brush-border membrane vesicles from the intestinal cells of the small intestine was carried out using the so-called Mg^2+ precipitation method. Male New Zealand rabbits (2-2.5 kg body weight) were sacrificed by intravenous injection of 0.5 ml of an aqueous solution of 2.5 mg of tetracaine HCl, 100 T 61® and 25 mg of mebezonium iodide. The small intestine was removed and rinsed with ice-cold physiological saline solution. The terminal […] of the small intestine (measured in the oral-rectal direction, i.e. the terminall ileum, which contains the active Na^+ -dependent bile acid transport system) were used for preparation of the brush-border membrane vesicles. The intestines were frozen at -80° C. under nitrogen in plastic bags. The frozen intestines were thawed in a water bath at 30° C. in order to prepare the membrane vesicles. The mucosa was scraped off and suspended in 60 ml of ice-cold 12 mM trio/HCl buffer (pH 7.1)/300 mM mannitol, 5 mM EGTA/10 mg/l of phenylmethylsulfonyl fluoride/1 mg/1 of soybean trypsin inhibitor (32 U/mg)/0.5 mg/l of bovine lung trypsin inhibitor (193 U/mg)/0.5 mg/l of bacitracin. After diluting to 300 ml with ice-cold distilled water, the suspension was homogenized with ice-cooling for 3 minutes at 75% of maximum power using an Ultraturrax (18 rod, IKA Werk Staufen, Federal Republic of Germany). After addition of 3 ml of 1M MgCl2 solution (final Concentration 10 mM), the homogenate was allowed to stand at 0° C. for exactly 1 minute. As a result of addition of Mg^2+, the cell membranes aggregate and precipitate with the exception of the brush-border membranes. After centrifugation at 3,000×g (5,000 rpm, SS-34 rotor) for 15 minutes, the precipitate is discarded and the supernatant which contains the brush-border membranes is centrifuged at 26,700×g (15,000 rpm, SS-34 rotor) for 30 minutes. The supernatant was discarded, and the precipitate was rehomogenized in 60 ml of 12 mM tris/HCl buffer (pH 7.1)/60 mM mannitol, 5 mM EGTA using a Potter Elvejhem homogenizer (Braun Melsungen, 900 rpm, 10 strokes). After addition of 0.1 ml of 1M MgCl2 solution and an incubation time of 15 minutes at 0° C., the mixture was again centrifuged at 3,000×g for 15 minutes. The supernatant was then again centrifuged at […] ( 15,000 rpm, SS-34 rotor) for 30 minutes. The precipitate was taken up in 30 ml of 10 mM tris/hepes buffer (pH 7.4) /300 mM mannitol and homogeneously resuspended by 20 strokes in a Potter Elvejhem homogenizer at 1,000 rpm. After centrifugation at 48,000×g (20,000 rpm, SS-34 rotor) for 30 minutes, the precipitate was taken up in 0.5 to 2 ml of tris/hepes buffer (pH 7.4)/280 mM mannitol (final concentration 20 mg/ml) and resuspended with the aid of a tuberculin syringe using a 27 gauge needle. The vesicles were either used immediately after preparation for transport investigations or stored at -196° C. in liquid nitrogen in 4 mg portions.
2. Inhibition of Na^+ -dependent [^3 H]taurocholate absorption into brush-border membrane vesicles of the ileum
The absorption of substrates into brush-border membrane vesicles was determined by means of the so-called membrane filtration technique. 10 μl of the vesicle suspension (100 μg of protein) were pipetted on the wall of a polystyrene incubation tube (11×70 mm) as a drop which contained the incubation medium together with the corresponding ligands (90 μl). […]

[1] = IC50, [^3 H]taurocholate absorption, rabbit ileum brush-border membrane vesicles
[2] = IC50 Na, Na^+ -dependent transport component (difference between absorption in Na-T-B and K-T-B)
[3] = Na^+ -dependent transport component (difference between absorption in Na-T-B and K-T-B), read-out: IC50 Na
[4] = [^3 H]taurocholate absorption, rabbit ileum brush-border membrane vesicles, read-out: IC50

SMILES: C[C@H](CCC(=O)NCCO[C@H]1CC[C@@]2(C)[C@@H](C1)C[C@@H](O)[C@@H]1[C@@H]2C[C@H](O)[C@]2(C)[C@@H]([C@H](C)CCC(=O)NCCS(=O)(=O)O)CC[C@@H]12)[C@H]1CC[C@H]2[C@@H]3[C@H](O)C[C@@H]4C[C@H](OCc5ccccc5)CC[C@]4(C)[C@H]3C[C@H](O)[C@]12C [369 (taurine conj.)]
- IC50 [1]: 50 µM
- IC50 [2]: 18 µM

SMILES: C[C@H](CCC(=O)O)[C@H]1CC[C@H]2[C@@H]3[C@H](O)C[C@@H]4C[C@@H](OCCNC(=O)CCC(=O)NCCCNC(=O)CC[C@@H](C)[C@H]5CC[C@H]6[C@@H]7[C@H](O)C[C@@H]8C[C@H](OC(c9ccccc9)c9ccccc9)CC[C@]8(C)[C@H]7C[C@H](O)[C@]56C)CC[C@]4(C)[C@H]3C[C@H](O)[C@]12C [Example 170]
- IC50 [3]: 14 µM
- IC50 [4]: 25 µM

SMILES: C[C@H](CCC(=O)NCCO[C@H]1CC[C@@]2(C)[C@@H](C1)C[C@@H](O)[C@@H]1[C@@H]2C[C@H](O)[C@]2(C)[C@@H]([C@H](C)CCC(=O)NCC(=O)O)CC[C@@H]12)[C@H]1CC[C@H]2[C@@H]3[C@H](O)C[C@@H]4C[C@H](O)CC[C@]4(C)[C@H]3C[C@H](O)[C@]12C [368 (glycine conj.)]
- IC50 [1]: 48 µM
- IC50 [2]: 16 µM

SMILES: C[C@H](CCC(=O)O)[C@H]1CC[C@H]2[C@@H]3[C@H](O)C[C@@H]4C[C@@H](OCCNC(=O)CCC(=O)NCCO[C@H]5CC[C@@]6(C)[C@@H](C5)C[C@@H](O)[C@@H]5[C@@H]6C[C@H](O)[C@]6(C)[C@@H]([C@H](C)CCC(=O)O)CC[C@@H]56)CC[C@]4(C)[C@H]3C[C@H](O)[C@]12C [Example 532]
- IC50 [3]: 10 µM
- IC50 [4]: 30 µM

SMILES: C[C@H](CCC(=O)NCCCNC(=O)CCC(=O)NCCO[C@H]1CC[C@@]2(C)[C@@H](C1)C[C@@H](O)[C@@H]1[C@@H]2C[C@H](O)[C@]2(C)[C@@H]([C@H](C)CCC(=O)NCCS(=O)(=O)O)CC[C@@H]12)[C@H]1CC[C@H]2[C@@H]3[C@H](O)C[C@@H]4C[C@H](OCc5ccccc5)CC[C@]4(C)[C@H]3C[C@H](O)[C@]12C [172 (taurine conj.)]
- IC50 [1]: 32 µM
- IC50 [2]: 20 µM

SMILES: C[C@H](CCC(=O)NCCS(=O)(=O)O)[C@H]1CC[C@H]2[C@@H]3[C@H](O)C[C@@H]4C[C@@H](OCCNC(=O)CCC(=O)NCCCNC(=O)CC[C@@H](C)[C@H]5CC[C@H]6[C@@H]7[C@H](O)C[C@@H]8C[C@H](OCc9ccccc9)CC[C@]8(C)[C@H]7C[C@H](O)[C@]56C)CC[C@]4(C)[C@H]3CC[C@]12C [191 (taurine conj.)]
- IC50 [1]: 18 µM
- IC50 [2]: 14 µM

SMILES: C[C@H](CCC(=O)NCC(=O)O)[C@H]1CC[C@H]2[C@@H]3[C@H](O)C[C@@H]4C[C@@H](OCCNC(=O)CCC(=O)NCCCNC(=O)CC[C@@H](C)[C@H]5CC[C@H]6[C@@H]7[C@H](O)C[C@@H]8C[C@H](OC(c9ccccc9)c9ccccc9)CC[C@]8(C)[C@H]7C[C@H](O)[C@]56C)CC[C@]4(C)[C@H]3C[C@H](O)[C@]12C [Example 528]
- IC50 [3]: 16 µM
- IC50 [4]: 26 µM

SMILES: C[C@H](CCC(=O)O)[C@H]1CC[C@H]2[C@@H]3[C@H](O)C[C@@H]4C[C@@H](OCCNC(=O)CCC(=O)NCCCNC(=O)CC[C@@H](C)[C@H]5CC[C@H]6[C@@H]7[C@H](O)C[C@@H]8C[C@H](OCc9ccccc9)CC[C@]8(C)[C@H]7C[C@H](O)[C@]56C)CC[C@]4(C)[C@H]3CC[C@]12C [Example 191]
- IC50 [3]: 29 µM
- IC50 [4]: 58 µM

SMILES: C[C@H](CCC(=O)NCCO[C@H]1CC[C@@]2(C)[C@@H](C1)C[C@@H](O)[C@@H]1[C@@H]2C[C@H](O)[C@]2(C)[C@@H]([C@H](C)CCC(=O)O)CC[C@@H]12)[C@H]1CC[C@H]2[C@@H]3[C@H](O)C[C@@H]4C[C@H](OCc5ccccc5)CC[C@]4(C)[C@H]3C[C@H](O)[C@]12C [Example 369]
- IC50 [3]: 20 µM
- IC50 [4]: 55 µM

SMILES: C[C@H](CCC(=O)NCCO[C@H]1CC[C@@]2(C)[C@@H](C1)C[C@@H](O)[C@@H]1[C@@H]2C[C@H](O)[C@]2(C)[C@@H]([C@H](C)CCC(=O)O)CC[C@@H]12)[C@H]1CC[C@H]2[C@@H]3[C@H](O)C[C@@H]4C[C@H](O)CC[C@]4(C)[C@H]3C[C@H](O)[C@]12C [Example 368]
- IC50 [3]: 18 µM
- IC50 [4]: 45 µM

SMILES: C[C@H](CCC(=O)NCCS(=O)(=O)O)[C@H]1CC[C@H]2[C@@H]3[C@H](O)C[C@@H]4C[C@@H](OCCNC(=O)CCC(=O)NCCCNC(=O)CC[C@@H](C)[C@H]5CC[C@H]6[C@@H]7[C@H](O)C[C@@H]8C[C@H](OC(c9ccccc9)c9ccccc9)CC[C@]8(C)[C@H]7C[C@H](O)[C@]56C)CC[C@]4(C)[C@H]3C[C@H](O)[C@]12C [Example 527]
- IC50 [3]: 10 µM
- IC50 [4]: 20 µM

SMILES: COC(=O)CC[C@@H](C)[C@H]1CC[C@H]2[C@@H]3[C@H](O)C[C@@H]4C[C@@H](OCCNC(=O)CCC(=O)NCCO[C@H]5CC[C@@]6(C)[C@@H](C5)C[C@@H](O)[C@@H]5[C@@H]6C[C@H](O)[C@]6(C)[C@@H]([C@H](C)CCC(=O)OC)CC[C@@H]56)CC[C@]4(C)[C@H]3C[C@H](O)[C@]12C [Example 531]
- IC50 [3]: 18 µM
- IC50 [4]: > 50 µM

SMILES: C[C@H](CCC(=O)NCC(=O)O)[C@H]1CC[C@H]2[C@@H]3[C@H](O)C[C@@H]4C[C@@H](OCCNC(=O)CCC(=O)NCCCNC(=O)CC[C@@H](C)[C@H]5CC[C@H]6[C@@H]7[C@H](O)C[C@@H]8C[C@H](OCc9ccccc9)CC[C@]8(C)[C@H]7C[C@H](O)[C@]56C)CC[C@]4(C)[C@H]3CC[C@]12C [191 (glycine conj.)]
- IC50 [1]: 27 µM
- IC50 [2]: 18 µM

Reference: patent publication US5250524A, “Bile acid derivatives, process for their preparation and use of these compounds as pharmaceuticals” (Hoechst Aktiengesellschaft, priority 1990, dated 1993)
